We go through 16 molecules from ChEMBL document CHEMBL1121801, “Salicylamide derivatives related to medroxalol with alpha- and beta-adrenergic antagonist and antihypertension activity” (J Med Chem, 1981).

Assay [1] relates to Rattus norvegicus. The experiment in a line: Compound was tested for antihypertensive activity n spontaneously hypertensive rats(SHR),at 50 mg/kg (po) dose after 4 h. The class given is functional.
Assay [2] concerns Rattus norvegicus. The experiment in a line: Compound was tested for antihypertensive activity in spontaneously hypertensive rats(SHR)at 50 mg/kg (po) dose after 1 h. In kind it is functional.
For assay [3], the species on record is Oryctolagus cuniculus. The assay is described as follows: (§1) Ratio of pA2 for beta-adrenergic receptor to that of alpha-adrenergic receptor.
Assay [4] deals with Rattus norvegicus. The experiment in a line: Antihypertensive activity in spontaneously hypertensive rats(SHR) at 50 mg/kg peroral dose after 4 h, expressed as decrease in systolic blood pressure. The class given is functional, Artery. The conditions noted are these: route oral.
Assay [5] has as its target Adrenergic receptor alpha (Homo sapiens) (UniProt P35348+P08913+P18825+P25100+P35368+P18089). The settings on record: Canis lupus familiaris.
Description: In vivo sympatholytic activity (phenylephrine-induced vasopressor response) at alpha-adrenergic receptor in anesthetized dog, iv
For assay [6], the target named is Beta-2 adrenergic receptor (Canis lupus familiaris) (UniProt P54833).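 Further: Beta-2 blockade of isoproterenol-induced vasodepression in anesthetized dogs, given intravenously.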
Chain of Beta-2 adrenergic receptor (Canis lupus familiaris) (P54833 whole entry, looked up): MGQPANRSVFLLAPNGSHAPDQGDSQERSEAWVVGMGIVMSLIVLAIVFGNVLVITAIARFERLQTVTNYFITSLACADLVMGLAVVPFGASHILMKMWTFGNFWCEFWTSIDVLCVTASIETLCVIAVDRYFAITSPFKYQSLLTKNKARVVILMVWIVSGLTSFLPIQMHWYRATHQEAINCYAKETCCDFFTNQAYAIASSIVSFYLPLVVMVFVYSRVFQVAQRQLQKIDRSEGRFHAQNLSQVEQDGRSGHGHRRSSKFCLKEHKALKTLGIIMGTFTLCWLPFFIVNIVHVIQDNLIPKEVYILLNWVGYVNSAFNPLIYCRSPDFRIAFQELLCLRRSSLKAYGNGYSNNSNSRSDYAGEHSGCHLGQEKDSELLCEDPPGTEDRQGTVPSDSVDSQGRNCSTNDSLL
Description: In vivo sympatholytic activity (isoproterenol-induced vasodepression) at beta 2-adrenergic receptor in anesthetized dog, iv
Assay [7] relates to Rattus norvegicus. The assay is described as follows: Antihypertensive activity in spontaneously hypertensive rats(SHR) at 50 mg/kg peroral dose after 1 h, expressed as decrease in systolic blood pressure. The conditions noted are these: route oral. The class given is functional, Artery.
Assay [8] addresses T1, Adrenergic receptor beta (Homo sapiens, UniProt P08588+P07550+P13945). The assay is described as follows: In vitro blocking activity against beta adrenergic receptor, isolated from guinea pig atria. In kind it is protein assay.
The species named for assay [9] is Cavia porcellus. The assay is described as follows: spasmolytic activity in isolated guinea pig ileum preparation;- log KB; (Bacl2). The class given is functional, organism-based. The conditions noted are these: read-out: pA2 (converted).
Assay [10] concerns the target Beta-1 adrenergic receptor (Homo sapiens) (UniProt P08588). The settings on record: Canis lupus familiaris.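 Further: anesthetized dogs dosed intravenously, sympatholytic action measured as inhibition of the chronotropic response to isoproterenol.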
Description: In vivo sympatholytic activity (isoproterenol-induced chronotropy) at beta 1-adrenergic receptor in anesthetized dog, iv
Assay [11] addresses T2, Adrenergic receptor alpha-1 (Homo sapiens, UniProt P35348+P25100+P35368).
T2 sequence (P35348 whole entry): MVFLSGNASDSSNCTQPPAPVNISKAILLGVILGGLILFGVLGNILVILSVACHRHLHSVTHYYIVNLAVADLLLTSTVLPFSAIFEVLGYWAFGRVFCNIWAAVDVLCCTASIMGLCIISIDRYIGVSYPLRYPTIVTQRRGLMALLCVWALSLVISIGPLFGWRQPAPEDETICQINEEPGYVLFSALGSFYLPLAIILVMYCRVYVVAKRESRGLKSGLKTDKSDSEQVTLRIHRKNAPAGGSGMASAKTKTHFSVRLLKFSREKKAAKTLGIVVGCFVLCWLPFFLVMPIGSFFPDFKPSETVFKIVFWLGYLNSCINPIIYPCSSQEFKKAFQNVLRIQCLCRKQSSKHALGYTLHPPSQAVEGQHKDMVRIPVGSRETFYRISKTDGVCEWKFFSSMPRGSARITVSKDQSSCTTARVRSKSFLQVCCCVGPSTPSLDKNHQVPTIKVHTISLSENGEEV
T2 sequence (P25100 whole entry): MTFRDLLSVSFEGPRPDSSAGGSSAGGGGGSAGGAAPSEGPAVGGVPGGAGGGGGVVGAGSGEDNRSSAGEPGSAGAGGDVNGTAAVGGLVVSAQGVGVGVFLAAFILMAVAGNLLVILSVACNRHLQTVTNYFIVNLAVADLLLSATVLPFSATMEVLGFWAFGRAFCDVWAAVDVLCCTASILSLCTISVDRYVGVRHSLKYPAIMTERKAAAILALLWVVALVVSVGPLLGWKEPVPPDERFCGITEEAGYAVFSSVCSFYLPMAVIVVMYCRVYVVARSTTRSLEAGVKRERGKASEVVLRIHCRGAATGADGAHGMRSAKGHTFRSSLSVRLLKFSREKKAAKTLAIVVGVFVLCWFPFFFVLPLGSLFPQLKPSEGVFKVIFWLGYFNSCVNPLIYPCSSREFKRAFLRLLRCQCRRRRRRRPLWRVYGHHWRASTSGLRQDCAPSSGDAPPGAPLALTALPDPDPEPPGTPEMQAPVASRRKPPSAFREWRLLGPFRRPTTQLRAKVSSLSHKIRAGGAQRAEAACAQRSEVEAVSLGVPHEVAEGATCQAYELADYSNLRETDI
T2 sequence (P35368 whole entry): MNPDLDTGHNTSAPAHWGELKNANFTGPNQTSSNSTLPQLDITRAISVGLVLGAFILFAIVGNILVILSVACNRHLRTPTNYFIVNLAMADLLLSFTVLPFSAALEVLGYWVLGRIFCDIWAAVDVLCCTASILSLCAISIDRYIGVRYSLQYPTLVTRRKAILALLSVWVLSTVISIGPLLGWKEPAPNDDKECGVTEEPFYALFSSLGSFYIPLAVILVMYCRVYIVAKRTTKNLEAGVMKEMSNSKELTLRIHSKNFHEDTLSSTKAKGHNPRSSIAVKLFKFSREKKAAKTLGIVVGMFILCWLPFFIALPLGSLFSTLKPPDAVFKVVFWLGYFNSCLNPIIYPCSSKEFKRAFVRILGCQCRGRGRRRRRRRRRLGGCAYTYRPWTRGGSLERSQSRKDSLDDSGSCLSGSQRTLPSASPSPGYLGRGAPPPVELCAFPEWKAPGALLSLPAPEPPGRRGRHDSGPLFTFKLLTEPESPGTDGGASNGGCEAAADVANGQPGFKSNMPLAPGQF
The experiment in a line: In vitro blocking activity against alpha adrenergic receptor, isolated from rabbit aortic strip. The class given is protein assay, Oryctolagus cuniculus.

For assay [12], the target named is T2, Adrenergic receptor alpha-1. The experiment in a line: Compound was tested in vitro for Alpha adrenergic receptor blocking activity in the isolated rabbit aortic strip preparation; - log KB. More on the design: species or system Oryctolagus cuniculus. The conditions noted are these: target entry is the homologue from another species.
Assay [13] addresses T1, Adrenergic receptor beta. The assay is described as §1. In kind it is protein assay. The conditions noted are these: Cavia porcellus.

The structures appear in SMILES notation.

Chain of Beta-1 adrenergic receptor (Homo sapiens) (P08588 whole entry, looked up): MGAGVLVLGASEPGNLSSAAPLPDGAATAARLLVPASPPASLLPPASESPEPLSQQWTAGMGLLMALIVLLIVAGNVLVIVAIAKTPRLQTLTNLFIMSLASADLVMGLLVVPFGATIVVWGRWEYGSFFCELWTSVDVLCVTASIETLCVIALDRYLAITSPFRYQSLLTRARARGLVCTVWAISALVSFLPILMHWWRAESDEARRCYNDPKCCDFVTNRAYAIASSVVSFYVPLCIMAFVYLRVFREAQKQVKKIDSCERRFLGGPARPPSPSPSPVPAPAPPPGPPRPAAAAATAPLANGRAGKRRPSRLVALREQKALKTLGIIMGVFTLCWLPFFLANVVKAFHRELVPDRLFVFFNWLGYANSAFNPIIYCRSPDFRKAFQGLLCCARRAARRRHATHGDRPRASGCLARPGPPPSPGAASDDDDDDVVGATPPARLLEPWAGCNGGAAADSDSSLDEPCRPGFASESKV

As to `Cc1ccc(N(CC2=NCCN2)c2cccc(O)c2)cc1.Cl` [PHENTOLAMINE HYDROCHLORIDE], the values for the BP decrease in assay [1] and in [2] were 60 mmHg and 62 mmHg, respectively.
Broadly, the pA2 is a measure of antagonist potency on a negative log scale. Low values mean lower antagonist potency, high ones higher antagonist potency. With `CC(CCc1ccc2c(c1)OCO2)NCC(O)c1ccc(O)c(C(=O)NCC(C)(C)C)c1.Cl` (stereo not given), the Ratio in assay [3] was 0.8. In addition, the BP decrease came to 24 mmHg in assay [4] and 55 mmHg in [7]. The DR10 in [5] is 6.6 mg/kg; in assay [6], more than 10 mg/kg; in assay [10], more than 10 mg/kg. The results for the pA2 in [8] and in assay [11] were 5.88 and 6.05, respectively. Further, the Kb in assay [9] was 0.126 µM.
On to `CCNC(=O)c1cc(C(O)CNC(C)CCc2ccc3c(c2)OCO3)ccc1O.Cl` (stereo not given), for which the Ratio in assay [3] turned out to be 3.2. The BP decrease in assay [4] is 108 mmHg; in assay [7] it was 95 mmHg. The DR10 is 3.22 mg/kg in assay [5], 16.8 mg/kg in [6] and 11.8 mg/kg in assay [10]. Moreover, the pA2 came to 6.36 in [8] and 5.86 in assay [11]. The Kb in assay [9] is 1.74 µM.
Regarding `CC(CCc1ccc2c(c1)OCO2)NCC(O)c1ccc(O)c(C(N)=O)c1.Cl` (stereo not given) [MEDROXALOL HYDROCHLORIDE], the Ratio in assay [3] was 55. In addition, the BP decrease was 90 mmHg in [4] and 88 mmHg in assay [7]. Moreover, the figures for the DR10 in assay [5], in [6] and in assay [10] were 3.86 mg/kg, 1.17 mg/kg and 0.84 mg/kg, respectively. Further, the pA2 in assay [12] is listed as 6.08; in assay [8] it was 7.82. The Kb in [9] was 2.34 µM.
Consider `COc1ccc(C(O)CNC(C)CCc2ccc3c(c2)OCO3)cc1C(N)=O.Cl` (stereo not given), for which, in assay [3], the Ratio was more than 2090. The BP decrease in assay [4] came to 78 mmHg; in assay [7], 76 mmHg. Besides, the DR10 in assay [5] was found to be 9.68 mg/kg; in assay [6] it was 1.64 mg/kg; in assay [10] it was 0.23 mg/kg. Further, the pA2 was 8.46 in assay [8] and less than 5.14 in [11]. Moreover, the Kb in assay [9] is 43.7 µM.
For `CC(C)NC(=O)c1cc(C(O)CNC(C)CCc2ccc3c(c2)OCO3)ccc1O.Cl` (stereo not given), the BP decrease came out at 10 mmHg in assay [4] and 48 mmHg in assay [7]. Further, the figures for the DR10 in assay [5], in [6] and in assay [10] were 4.84 mg/kg, 14.8 mg/kg and 22.5 mg/kg, respectively. Moreover, in assay [13], the Ratio came out at 1.1. Besides, the figures for the pA2 in assay [8] and in [11] were 5.88 and 5.85, respectively. The Kb in assay [9] was 0.417 µM.
As to `CC(Cc1ccc2c(c1)OCO2)NCC(O)c1ccc(O)c(C(N)=O)c1` (stereo not given), in assay [3], the Ratio turned out to be 0.9. Besides, the BP decrease is reported as 73 mmHg in assay [4] and 79 mmHg in assay [7]. Moreover, the DR10 in assay [5] came out at 16 mg/kg; in assay [6], 7.13 mg/kg; in assay [10], 6.75 mg/kg. The pA2 in assay [8] was found to be 5.97; in assay [11], 6.04. Besides, the Kb in assay [9] is 4.57 µM.
Regarding `CCCCCCCCCCCCNC(=O)c1cc(C(O)CNC(C)CCc2ccc3c(c2)OCO3)ccc1O.Cl` (stereo not given), the BP decrease in assay [1] is reported as 18 mmHg; in assay [2], 16 mmHg. The pA2 is given as 4.53 in assay [8] and less than 5 in assay [11]. Also, the Kb in [9] is less than 63.1 µM.
As for `Cc1ccccc1N1CCN(CC(O)c2ccc(O)c(C(N)=O)c2)CC1.Cl.Cl` (stereo not given), the Ratio in assay [3] is 0.1. Moreover, the BP decrease in assay [4] worked out at 37 mmHg; in assay [7], 48 mmHg. In addition, the DR10 in [5] was 1.09 mg/kg; in [6], more than 10 mg/kg; in assay [10], 15.3 mg/kg. Further, the pA2 in assay [8] is 6.7; in [11] it was 7.57. Further, the Kb in assay [9] is 1.86 µM.
For the molecule `CNC(=O)c1cc(C(O)CNC(C)CCc2ccc3c(c2)OCO3)ccc1O.Cl` (stereo not given), the Ratio in assay [3] was found to be 6.2. Also, the BP decrease in assay [4] was 91 mmHg; in assay [7] it was 84 mmHg. The DR10 stood at 5.44 mg/kg in assay [5], 3.61 mg/kg in assay [6] and 8.63 mg/kg in [10]. Besides, the pA2 is reported as 6.69 in [8] and 5.9 in assay [11]. Further, the Kb in assay [9] is 0.38 µM.
Turning to `Cl.NC(=O)c1cc(C(O)CN2CCN(c3ccccn3)CC2)ccc1O` (stereo not given), in [3], the Ratio amounted to 0.2. Further, the figures for the BP decrease in assay [4] and in assay [7] were 13 mmHg and 16 mmHg, respectively. The results for the pA2 in assay [8] and in [11] were 5.37 and 6.08, respectively. Besides, the Kb in [9] is 126 µM.
In the case of `CC(C)(CCc1ccc2c(c1)OCO2)NCC(O)c1ccc(O)c(C(N)=O)c1.Cl` (stereo not given), the Ratio in assay [3] was found to be 69. For the same molecule, the BP decrease in assay [4] is listed as 61 mmHg; in assay [7], 43 mmHg. In addition, the figures for the DR10 in assay [6] and in assay [10] were 0.76 mg/kg and 2.1 mg/kg, respectively. Besides, the figures for the pA2 in assay [8] and in assay [11] were 7.15 and 5.31, respectively. Besides, the Kb in assay [9] was 0.676 µM.
Consider `COC(=O)c1cc(C(O)CN2CCC(n3c(O)nc4ccccc43)CC2)ccc1O.Cl` (stereo not given), for which the Ratio in [3] was 0.06. The BP decrease was 37 mmHg in assay [4] and 52 mmHg in assay [7]. Also, the pA2 in assay [8] turned out to be 5.71; in assay [11] it was 6.94. Further, the Kb in assay [9] was 1.26 µM.
For `CCOc1ccc(C(O)CN2CCN(c3ccccc3)CC2)cc1C(N)=O.Cl` (stereo not given), the Ratio in assay [3] was 0.1. Moreover, the BP decrease is listed as 19 mmHg in assay [4] and 22 mmHg in [7]. In addition, the pA2 in assay [8] was 5.27; in assay [11], 6.27. Further, the Kb in assay [9] is 21.4 µM.
Turning to `COC(=O)c1cc(C(O)CNC(C)CCc2ccc3c(c2)OCO3)ccc1O.Cl` (stereo not given), in assay [3], the Ratio is 78. For the same molecule, the BP decrease in assay [4] came to 53 mmHg; in assay [7], 56 mmHg. For the same molecule, the figures for the DR10 in assay [5], in [6] and in [10] were 5.82 mg/kg, 5.46 mg/kg and 2.19 mg/kg, respectively. Besides, the pA2 is on record as 7.62 in [8] and 5.73 in assay [11]. Besides, the Kb in [9] is 0.126 µM.
In the case of `Cl.NC(=O)c1cc(C(O)CN2CCN(Cc3ccccc3)CC2)ccc1O` (stereo not given), in assay [3], the Ratio came out at 0.9. Besides, the BP decrease in [4] is recorded as 40 mmHg; in [7] it was 35 mmHg. Also, the pA2 in [8] is listed as 5.07; in [11], 5.13. Besides, the Kb in assay [9] is more than 74.1 µM.
